The source made the active and inactive calls. The calls are words filed in the database; no cut-off is given here.
How the values were obtained:
Mus musculus [1] = assay: Toxicity in human A549 cells xenografted in BALB/c athymic nude male mouse assessed as maximum weight loss at 10 mg/kg, po in presence of 40 mg/kg, po PTX administered on day 1, 5, 9 and 13 post tumor implantation; format: organism-based; settings: in vivo
[2] = Elimination rate constant in Sprague-Dawley rat at 5 mg/kg, iv; format: ADME, organism-based; parameters: dose 5 mg/kg, route intravenous; settings: in vivo
[3] = AUC (0 to t) in Sprague-Dawley rat at 15 mg/kg, po; format: ADME, organism-based; parameters: dose 15 mg/kg, route oral; settings: plasma
A549 [4] = assay: Anticancer activity against human A549 cells xenografted in BALB/c athymic nude male mouse assessed as mouse survival rate at 10 mg/kg, po in presence of 40 mg/kg, po PTX administered on day 1, 5, 9 and 13 post tumor implantation; format: functional
NCI/ADR-RES = assay: Effect on P-glycoprotein expression in human MCF7/ADR cells at 100 uM after 2 hrs by Western blot analysis; format: functional, cell-based
P-glycoprotein (ABCB1) = P-glycoprotein (ABCB1) (Homo sapiens, UniProt P08183); assay: (§1) Inhibition of P-glycoprotein in human MCF7/ADR cells assessed as reduction in [3H]-DNM efflux ratio at 100 uM after 1 hr relative untreated control; format: cell-based, NCI/ADR-RES; settings: MCF7/ADR cells (NCI/ADR-RES), probe [3H]-DNM, read-out: Activity
[5] = Absolute bioavailability in Sprague-Dawley rat at 15 mg/kg, po; format: ADME, organism-based; settings: in vivo
[6] = target: T1, ATP-dependent translocase ABCB1 (Homo sapiens, UniProt P08183); assay: Inhibition of P-glycoprotein in human MCF7/ADR cells assessed as daunomycin IC50 at 100 uM after 2 hrs; format: cell-based; settings: nci/adr-res
Mus musculus [7] = assay: Toxicity in human A549 cells xenografted in BALB/c athymic nude male mouse assessed as maximum weight loss at 5 mg/kg, po in presence of 40 mg/kg, po PTX administered on day 1, 5, 9 and 13 post tumor implantation; format: organism-based; settings: in vivo
[8] = target: T1, ATP-dependent translocase ABCB1; assay: Inhibition of P-glycoprotein in human MCF7/ADR cells assessed as increase in [3H]-DNM accumulation at 100 uM after 2 hrs relative untreated control; format: cell-based; parameters: Activity: scale not given: the % may be the effect or the level left; settings: nci/adr-res
A549 [9] = assay: Anticancer activity against human A549 cells xenografted in BALB/c athymic nude male mouse assessed as mouse tumor growth inhibition rate at 10 mg/kg, po in presence of 40 mg/kg, po PTX administered on day 1, 5, 9 and 13 post tumor implantation; format: functional
A549 [10] = assay: Anticancer activity against human A549 cells xenografted in BALB/c athymic nude male mouse assessed as tumor growth inhibition rate at 5 mg/kg, po in presence of 40 mg/kg, po PTX administered on day 1, 5, 9 and 13 post tumor implantation; format: functional
[11] = Elimination half life in Sprague-Dawley rat at 15 mg/kg, po; format: ADME, organism-based; parameters: dose 15 mg/kg, route oral; settings: in vivo, read-out: beta t1/2 (converted)
[12] = AUC (0 to t) in Sprague-Dawley rat at 5 mg/kg, iv; format: ADME, organism-based; parameters: dose 5 mg/kg, route intravenous; settings: plasma
Rattus norvegicus = assay: Absolute bioavailability in Sprague-Dawley rat at 5 mg/kg, iv; format: ADME, organism-based; settings: in vivo
A549 [13] = assay: Anticancer activity against human A549 cells xenografted in BALB/c athymic nude male mouse assessed as mouse survival rate at 5 mg/kg, po in presence of 40 mg/kg, po PTX administered on day 1, 5, 9 and 13 post tumor implantation; format: functional
[14] = Tmax in Sprague-Dawley rat at 15 mg/kg, po; format: ADME, organism-based; parameters: dose 15 mg/kg, route oral; settings: in vivo
[15] = Elimination half life in Sprague-Dawley rat at 5 mg/kg, iv; format: ADME, organism-based; parameters: dose 5 mg/kg, route intravenous; settings: in vivo, read-out: beta t1/2 (converted)
[16] = Cmax in Sprague-Dawley rat at 15 mg/kg, po; format: ADME, organism-based; parameters: dose 15 mg/kg, route oral; settings: in vivo
[17] = Elimination rate constant in Sprague-Dawley rat at 15 mg/kg, po; format: ADME, organism-based; parameters: dose 15 mg/kg, route oral; settings: in vivo
[18] = Initial drug concentration in Sprague-Dawley rat blood at 5 mg/kg, iv; format: ADME, organism-based; parameters: dose 5 mg/kg, route intravenous
[19] = target: T1, ATP-dependent translocase ABCB1; assay: as §1; format: cell-based, NCI/ADR-RES; settings: nci/adr-res, 1 h, 100 µM

T1 sequence (P08183 whole entry): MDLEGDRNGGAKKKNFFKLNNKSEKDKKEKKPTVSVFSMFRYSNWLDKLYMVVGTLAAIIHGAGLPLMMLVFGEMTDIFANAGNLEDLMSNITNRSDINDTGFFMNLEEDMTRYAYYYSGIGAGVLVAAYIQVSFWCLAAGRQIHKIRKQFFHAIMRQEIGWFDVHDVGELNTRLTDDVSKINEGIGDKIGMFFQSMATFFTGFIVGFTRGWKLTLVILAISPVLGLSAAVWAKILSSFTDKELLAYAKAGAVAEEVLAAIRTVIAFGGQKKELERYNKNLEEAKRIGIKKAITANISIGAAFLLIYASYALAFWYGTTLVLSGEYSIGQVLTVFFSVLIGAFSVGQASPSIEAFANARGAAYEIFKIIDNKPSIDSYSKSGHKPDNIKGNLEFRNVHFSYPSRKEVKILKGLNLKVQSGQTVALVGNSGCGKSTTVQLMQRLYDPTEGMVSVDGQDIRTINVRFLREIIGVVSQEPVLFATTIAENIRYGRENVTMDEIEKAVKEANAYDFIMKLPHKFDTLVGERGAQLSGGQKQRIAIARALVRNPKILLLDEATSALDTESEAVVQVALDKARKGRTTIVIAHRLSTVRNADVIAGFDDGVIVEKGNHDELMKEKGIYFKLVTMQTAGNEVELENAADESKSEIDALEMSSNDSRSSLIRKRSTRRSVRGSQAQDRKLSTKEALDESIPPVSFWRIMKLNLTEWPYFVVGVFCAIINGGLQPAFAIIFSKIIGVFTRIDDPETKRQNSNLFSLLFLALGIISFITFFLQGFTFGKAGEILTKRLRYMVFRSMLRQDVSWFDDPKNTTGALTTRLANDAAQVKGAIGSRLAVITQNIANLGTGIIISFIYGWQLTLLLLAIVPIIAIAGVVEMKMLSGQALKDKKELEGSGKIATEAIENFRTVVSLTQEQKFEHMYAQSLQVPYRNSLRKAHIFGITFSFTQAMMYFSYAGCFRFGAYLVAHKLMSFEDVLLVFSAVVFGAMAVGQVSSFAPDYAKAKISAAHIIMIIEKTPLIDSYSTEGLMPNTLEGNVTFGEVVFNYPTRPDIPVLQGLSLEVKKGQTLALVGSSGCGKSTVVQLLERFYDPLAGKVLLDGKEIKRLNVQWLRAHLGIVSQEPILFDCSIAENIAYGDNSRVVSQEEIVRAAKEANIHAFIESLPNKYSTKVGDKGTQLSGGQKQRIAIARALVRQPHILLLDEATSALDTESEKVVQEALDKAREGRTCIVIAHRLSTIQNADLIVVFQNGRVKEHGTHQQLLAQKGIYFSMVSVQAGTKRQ
P-glycoprotein (ABCB1), sequence (P08183 whole entry): as above

O=c1c2ccccc2sc2cc(OCC(O)CCl)cc(O)c12 (configuration not stated)
Activity (Mus musculus [1]): 3.52% | k el [2]: 0.000569 s⁻¹ | AUC(0-t) [3]: 23 ng·h/mL | Survival (A549 [4]): 100% | Activity (NCI/ADR-RES): inactive | inhibition at 1 h, 100 µM (P-glycoprotein (ABCB1)): 70.4% | bioavailability [5]: 0.6% | inhibition (INH) [6]: Active | Activity (Mus musculus [7]): 6.19% | Activity [8]: 707% | TGI (A549 [9]): 52.6% | TGI (A549 [10]): 61.6% | half-life [11]: 23.4 min | AUC(0-t) [12]: 1250 ng·h/mL | F (Rattus norvegicus): 100% | Survival (A549 [13]): 80% | Tmax [14]: 12.6 min | half-life [15]: 21 min | Cmax [16]: 49 ng/mL | k el [17]: 0.000539 s⁻¹ | C0 [18]: 44300 ng/mL

COc1cccc2c(=O)c3c(O)cc(OCC4CS4)cc3oc12 (configuration not stated)
inhibition (INH) [6]: Active

COc1cccc2c(=O)c3c(O)cc(OCC(O)CCl)cc3oc12 (configuration not stated)
inhibition (INH) [6]: Active

COc1cccc2c(=O)c3c(O)cc(OCC(O)CO)cc3oc12 (configuration not stated)
inhibition (INH) [6]: Active

COc1ccc(CCN(C)CCCC(C#N)(c2ccc(OC)c(OC)c2)C(C)C)cc1OC (configuration not stated) [VERAPAMIL]
inhibition (INH) [6]: Active | Activity [8]: 319%

COc1cc(OCC(O)CCl)cc2oc3ccccc3c(=O)c12 (configuration not stated)
Activity (NCI/ADR-RES): inactive | inhibition (INH) [19]: Not Active | inhibition (INH) [6]: Active | inhibition (INH) [8]: Not Active

O=c1c2ccccc2oc2cc(OCC(O)CO)cc(O)c12 (configuration not stated)
inhibition (INH) [6]: Active

O=c1c2ccccc2oc2cc(OCC3CS3)cc(OCC3CS3)c12 (configuration not stated)
inhibition (INH) [6]: Active

O=c1c2ccccc2oc2cc(OCC(O)CCl)cc(O)c12 (configuration not stated)
inhibition (INH) [6]: Active

O=c1c2ccccc2sc2cc(OCC(S)CCl)cc(O)c12 (configuration not stated)
inhibition (INH) [6]: Active

COc1cccc2c(=O)c3c(O)cc(OCC(S)CCl)cc3oc12 (configuration not stated)
inhibition (INH) [6]: Active

COc1cccc2c(=O)c3c(OCC4CS4)cc(OCC4CS4)cc3oc12 (configuration not stated)
inhibition (INH) [6]: Active

O=c1c2ccccc2sc2cc(OCC3CS3)cc(O)c12 (configuration not stated)
inhibition (INH) [6]: Active
